Where “and” joins values, the source holds several entries; their conditions need not be identical. Equal values may be shown once.
Tests used:
Type in all cases: biochemical
DYRK3 = target: T1, DYRK3 (Homo sapiens, UniProt O43781); experiment: DYRKs kinase activity assay (33P-ATP, DYRKtide substrate): DYRK3
T1 construct: purchased Reaction Biology Corporation (assay service)
T1 sequence (O43781 1-588): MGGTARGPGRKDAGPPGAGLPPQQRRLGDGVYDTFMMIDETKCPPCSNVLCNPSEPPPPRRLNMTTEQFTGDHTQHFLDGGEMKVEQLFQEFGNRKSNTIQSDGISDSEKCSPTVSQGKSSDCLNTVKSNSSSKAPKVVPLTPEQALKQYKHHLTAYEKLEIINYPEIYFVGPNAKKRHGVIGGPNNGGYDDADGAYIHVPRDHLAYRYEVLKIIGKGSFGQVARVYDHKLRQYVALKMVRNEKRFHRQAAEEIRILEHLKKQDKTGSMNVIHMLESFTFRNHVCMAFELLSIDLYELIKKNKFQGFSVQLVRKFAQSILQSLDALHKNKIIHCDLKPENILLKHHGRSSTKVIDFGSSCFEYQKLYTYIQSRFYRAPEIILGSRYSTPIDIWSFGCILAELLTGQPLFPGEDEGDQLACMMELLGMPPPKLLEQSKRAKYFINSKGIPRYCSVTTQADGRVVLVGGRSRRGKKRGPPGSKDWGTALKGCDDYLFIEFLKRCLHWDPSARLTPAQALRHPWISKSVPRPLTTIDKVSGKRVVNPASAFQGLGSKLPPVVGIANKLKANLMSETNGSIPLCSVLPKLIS

[1] = target: T2, panel of 370 protein kinases (Homo sapiens, UniProt Q92918); experiment: Kinase inhibitor specificity profiling (Reaction Biology Corporation); design: % Enzyme Activity (relative to DMSO controls): concentration or dose not given beside the values; conditions: 2 h, kinase HPK1/MAP4K1; read-out: % Enzyme Activity (relative to DMSO controls)
T2 construct: purchased Reaction Biology Corporation (assay service)

[2] = target: T3, panel of 370 protein kinases (Homo sapiens, UniProt Q15831); experiment: as above; design: % Enzyme Activity (relative to DMSO controls): concentration or dose not given beside the values; conditions: 2 h, kinase LKB1; read-out: % Enzyme Activity (relative to DMSO controls)
T3 construct: purchased Reaction Biology Corporation (assay service)
T3 sequence (Q15831 whole entry): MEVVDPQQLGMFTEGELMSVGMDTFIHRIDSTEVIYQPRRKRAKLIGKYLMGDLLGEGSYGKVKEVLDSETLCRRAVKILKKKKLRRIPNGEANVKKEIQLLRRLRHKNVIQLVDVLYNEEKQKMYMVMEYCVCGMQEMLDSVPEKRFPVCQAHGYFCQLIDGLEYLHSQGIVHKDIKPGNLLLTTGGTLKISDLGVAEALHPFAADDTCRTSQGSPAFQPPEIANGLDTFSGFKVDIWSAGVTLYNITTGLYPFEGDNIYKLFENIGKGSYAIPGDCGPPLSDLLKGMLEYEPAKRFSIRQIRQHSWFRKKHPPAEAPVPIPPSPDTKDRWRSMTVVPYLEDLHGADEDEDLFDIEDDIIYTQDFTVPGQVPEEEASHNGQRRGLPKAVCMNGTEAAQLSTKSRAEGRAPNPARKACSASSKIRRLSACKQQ

[3] = target: T4, panel of 370 protein kinases (Homo sapiens, UniProt Q13188); experiment: as above; design: % Enzyme Activity (relative to DMSO controls): concentration or dose not given beside the values; conditions: 2 h, kinase MST2/STK3; read-out: % Enzyme Activity (relative to DMSO controls)
T4 construct: purchased Reaction Biology Corporation (assay service)
T4 sequence (Q13188 whole entry): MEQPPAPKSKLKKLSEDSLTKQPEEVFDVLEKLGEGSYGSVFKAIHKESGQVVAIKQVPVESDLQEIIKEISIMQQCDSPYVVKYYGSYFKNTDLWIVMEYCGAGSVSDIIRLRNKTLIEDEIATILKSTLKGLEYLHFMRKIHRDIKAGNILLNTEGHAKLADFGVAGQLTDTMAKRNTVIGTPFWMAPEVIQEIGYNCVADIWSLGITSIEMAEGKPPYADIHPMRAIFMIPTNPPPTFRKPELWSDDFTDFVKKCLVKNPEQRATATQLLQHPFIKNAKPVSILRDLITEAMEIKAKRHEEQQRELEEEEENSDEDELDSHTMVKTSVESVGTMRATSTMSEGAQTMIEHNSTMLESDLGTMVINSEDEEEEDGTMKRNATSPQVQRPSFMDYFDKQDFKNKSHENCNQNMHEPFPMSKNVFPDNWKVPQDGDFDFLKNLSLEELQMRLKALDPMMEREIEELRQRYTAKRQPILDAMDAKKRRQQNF

[4] = target: T5, panel of 370 protein kinases (Homo sapiens, UniProt P04629); experiment: as above; design: % Enzyme Activity (relative to DMSO controls): concentration or dose not given beside the values; conditions: 2 h, kinase TRKA; read-out: % Enzyme Activity (relative to DMSO controls)
T5 construct: purchased Reaction Biology Corporation (assay service)

[5] = target: T6, panel of 370 protein kinases (Homo sapiens, UniProt Q16512); experiment: as above; design: % Enzyme Activity (relative to DMSO controls): concentration or dose not given beside the values; conditions: 2 h, kinase PKN1/PRK1; read-out: % Enzyme Activity (relative to DMSO controls)
T6 construct: purchased Reaction Biology Corporation (assay service)

[6] = target: T7, panel of 370 protein kinases (Homo sapiens, UniProt P06241); experiment: as above; design: % Enzyme Activity (relative to DMSO controls): concentration or dose not given beside the values; conditions: 2 h, kinase FYN; read-out: % Enzyme Activity (relative to DMSO controls)
T7 construct: purchased Reaction Biology Corporation (assay service)
T7 sequence (P06241 whole entry): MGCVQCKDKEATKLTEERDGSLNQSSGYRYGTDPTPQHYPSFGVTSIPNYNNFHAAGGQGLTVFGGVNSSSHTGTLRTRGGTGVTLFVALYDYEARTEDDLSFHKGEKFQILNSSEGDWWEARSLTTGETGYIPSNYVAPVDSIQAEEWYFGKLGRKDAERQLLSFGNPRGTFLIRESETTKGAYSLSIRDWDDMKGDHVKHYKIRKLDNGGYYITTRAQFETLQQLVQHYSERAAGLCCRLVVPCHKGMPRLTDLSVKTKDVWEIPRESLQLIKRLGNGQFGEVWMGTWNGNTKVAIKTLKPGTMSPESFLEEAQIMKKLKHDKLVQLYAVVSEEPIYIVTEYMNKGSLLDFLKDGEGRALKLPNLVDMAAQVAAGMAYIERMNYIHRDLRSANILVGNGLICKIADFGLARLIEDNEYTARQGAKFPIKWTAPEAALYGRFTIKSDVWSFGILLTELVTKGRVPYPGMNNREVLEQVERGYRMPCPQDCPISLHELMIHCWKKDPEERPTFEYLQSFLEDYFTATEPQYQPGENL

[7] = target: T8, panel of 370 protein kinases (Homo sapiens, UniProt Q8TD19); experiment: as above; design: % Enzyme Activity (relative to DMSO controls): concentration or dose not given beside the values; conditions: 2 h, kinase NEK9; read-out: % Enzyme Activity (relative to DMSO controls)
T8 construct: purchased Reaction Biology Corporation (assay service)
T8 sequence (Q8TD19 whole entry): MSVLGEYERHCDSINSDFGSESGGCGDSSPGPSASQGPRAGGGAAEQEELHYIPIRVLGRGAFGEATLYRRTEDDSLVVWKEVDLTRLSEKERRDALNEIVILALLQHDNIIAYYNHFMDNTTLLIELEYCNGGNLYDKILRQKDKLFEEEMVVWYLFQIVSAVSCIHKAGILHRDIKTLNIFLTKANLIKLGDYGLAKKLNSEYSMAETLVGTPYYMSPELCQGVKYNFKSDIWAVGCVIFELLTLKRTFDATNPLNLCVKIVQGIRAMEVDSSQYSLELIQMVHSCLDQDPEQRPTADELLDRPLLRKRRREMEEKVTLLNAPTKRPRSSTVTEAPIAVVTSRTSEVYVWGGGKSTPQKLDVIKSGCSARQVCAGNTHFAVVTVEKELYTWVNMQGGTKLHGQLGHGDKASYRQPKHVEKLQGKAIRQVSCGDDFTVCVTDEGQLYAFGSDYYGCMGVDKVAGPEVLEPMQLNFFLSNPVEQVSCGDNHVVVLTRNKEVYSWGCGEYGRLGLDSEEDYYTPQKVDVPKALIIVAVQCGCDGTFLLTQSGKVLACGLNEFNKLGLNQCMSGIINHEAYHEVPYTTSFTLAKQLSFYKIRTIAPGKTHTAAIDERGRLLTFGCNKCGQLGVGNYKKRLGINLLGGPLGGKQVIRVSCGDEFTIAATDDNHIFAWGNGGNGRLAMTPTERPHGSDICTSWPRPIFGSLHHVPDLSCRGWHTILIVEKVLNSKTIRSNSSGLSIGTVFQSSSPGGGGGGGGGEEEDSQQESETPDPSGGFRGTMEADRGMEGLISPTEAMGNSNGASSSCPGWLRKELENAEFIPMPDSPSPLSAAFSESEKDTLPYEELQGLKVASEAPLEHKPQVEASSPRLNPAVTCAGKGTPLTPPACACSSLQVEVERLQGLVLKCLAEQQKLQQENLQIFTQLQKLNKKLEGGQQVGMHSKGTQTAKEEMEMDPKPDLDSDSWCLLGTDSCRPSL

[8] = target: T9, panel of 370 protein kinases (Homo sapiens, UniProt Q04759); experiment: as above; design: % Enzyme Activity (relative to DMSO controls): concentration or dose not given beside the values; conditions: 2 h, kinase PKCtheta; read-out: % Enzyme Activity (relative to DMSO controls)
T9 construct: purchased Reaction Biology Corporation (assay service)
T9 sequence (Q04759 whole entry): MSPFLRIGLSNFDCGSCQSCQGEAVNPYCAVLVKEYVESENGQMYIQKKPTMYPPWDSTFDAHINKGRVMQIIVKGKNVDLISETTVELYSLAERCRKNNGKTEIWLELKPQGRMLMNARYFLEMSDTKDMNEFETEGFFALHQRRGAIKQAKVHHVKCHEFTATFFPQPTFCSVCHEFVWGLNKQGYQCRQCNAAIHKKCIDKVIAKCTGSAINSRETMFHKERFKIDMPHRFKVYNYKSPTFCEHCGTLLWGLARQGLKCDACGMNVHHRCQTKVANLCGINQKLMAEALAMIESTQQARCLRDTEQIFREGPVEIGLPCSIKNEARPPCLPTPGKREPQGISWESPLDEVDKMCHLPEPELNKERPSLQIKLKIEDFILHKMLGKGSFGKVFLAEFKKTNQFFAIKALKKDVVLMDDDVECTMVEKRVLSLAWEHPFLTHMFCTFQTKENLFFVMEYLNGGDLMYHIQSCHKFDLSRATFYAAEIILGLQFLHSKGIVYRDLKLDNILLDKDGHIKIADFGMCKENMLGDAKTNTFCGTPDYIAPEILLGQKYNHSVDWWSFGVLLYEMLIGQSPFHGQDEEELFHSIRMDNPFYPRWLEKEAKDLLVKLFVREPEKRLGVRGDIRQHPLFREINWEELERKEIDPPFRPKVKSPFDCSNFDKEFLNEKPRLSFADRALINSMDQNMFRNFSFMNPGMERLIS

[9] = target: T10, panel of 370 protein kinases (Homo sapiens, UniProt Q02763); experiment: as above; design: % Enzyme Activity (relative to DMSO controls): concentration or dose not given beside the values; conditions: 2 h, kinase TIE2/TEK; read-out: % Enzyme Activity (relative to DMSO controls)
T10 construct: purchased Reaction Biology Corporation (assay service)
T10 sequence (Q02763 23-1124): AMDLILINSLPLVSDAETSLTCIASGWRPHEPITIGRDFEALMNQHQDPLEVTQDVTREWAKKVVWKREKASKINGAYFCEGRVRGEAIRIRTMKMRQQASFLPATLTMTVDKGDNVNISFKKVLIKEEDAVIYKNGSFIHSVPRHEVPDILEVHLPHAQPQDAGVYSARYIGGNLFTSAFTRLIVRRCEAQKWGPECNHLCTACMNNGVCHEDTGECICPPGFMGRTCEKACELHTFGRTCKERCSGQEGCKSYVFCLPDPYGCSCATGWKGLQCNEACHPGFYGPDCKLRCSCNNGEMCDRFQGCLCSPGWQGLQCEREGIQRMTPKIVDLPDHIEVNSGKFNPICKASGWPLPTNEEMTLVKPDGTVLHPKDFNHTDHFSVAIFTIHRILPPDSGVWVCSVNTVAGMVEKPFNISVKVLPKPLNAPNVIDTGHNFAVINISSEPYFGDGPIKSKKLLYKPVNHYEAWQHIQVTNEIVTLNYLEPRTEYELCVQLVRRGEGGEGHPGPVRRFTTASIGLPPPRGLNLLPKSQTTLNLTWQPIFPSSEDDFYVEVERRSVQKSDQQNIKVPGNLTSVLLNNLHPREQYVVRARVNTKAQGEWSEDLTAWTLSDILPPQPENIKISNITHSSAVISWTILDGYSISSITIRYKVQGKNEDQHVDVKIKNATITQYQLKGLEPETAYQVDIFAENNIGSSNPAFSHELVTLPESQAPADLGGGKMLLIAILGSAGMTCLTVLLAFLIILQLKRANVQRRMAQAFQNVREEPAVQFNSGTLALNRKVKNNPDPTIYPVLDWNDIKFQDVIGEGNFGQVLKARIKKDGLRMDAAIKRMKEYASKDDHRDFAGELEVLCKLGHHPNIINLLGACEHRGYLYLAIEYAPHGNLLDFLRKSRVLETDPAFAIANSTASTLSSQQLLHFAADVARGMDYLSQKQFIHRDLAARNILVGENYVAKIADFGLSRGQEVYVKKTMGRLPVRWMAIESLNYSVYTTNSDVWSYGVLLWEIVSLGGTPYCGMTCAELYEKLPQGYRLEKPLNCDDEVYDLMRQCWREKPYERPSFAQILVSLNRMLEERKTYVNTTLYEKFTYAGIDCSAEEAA

[10] = target: T11, panel of 370 protein kinases (Homo sapiens, UniProt Q9P0L2); experiment: as above; design: % Enzyme Activity (relative to DMSO controls): concentration or dose not given beside the values; conditions: 2 h, kinase MARK1; read-out: % Enzyme Activity (relative to DMSO controls)
T11 construct: purchased Reaction Biology Corporation (assay service)
T11 sequence (Q9P0L2 whole entry): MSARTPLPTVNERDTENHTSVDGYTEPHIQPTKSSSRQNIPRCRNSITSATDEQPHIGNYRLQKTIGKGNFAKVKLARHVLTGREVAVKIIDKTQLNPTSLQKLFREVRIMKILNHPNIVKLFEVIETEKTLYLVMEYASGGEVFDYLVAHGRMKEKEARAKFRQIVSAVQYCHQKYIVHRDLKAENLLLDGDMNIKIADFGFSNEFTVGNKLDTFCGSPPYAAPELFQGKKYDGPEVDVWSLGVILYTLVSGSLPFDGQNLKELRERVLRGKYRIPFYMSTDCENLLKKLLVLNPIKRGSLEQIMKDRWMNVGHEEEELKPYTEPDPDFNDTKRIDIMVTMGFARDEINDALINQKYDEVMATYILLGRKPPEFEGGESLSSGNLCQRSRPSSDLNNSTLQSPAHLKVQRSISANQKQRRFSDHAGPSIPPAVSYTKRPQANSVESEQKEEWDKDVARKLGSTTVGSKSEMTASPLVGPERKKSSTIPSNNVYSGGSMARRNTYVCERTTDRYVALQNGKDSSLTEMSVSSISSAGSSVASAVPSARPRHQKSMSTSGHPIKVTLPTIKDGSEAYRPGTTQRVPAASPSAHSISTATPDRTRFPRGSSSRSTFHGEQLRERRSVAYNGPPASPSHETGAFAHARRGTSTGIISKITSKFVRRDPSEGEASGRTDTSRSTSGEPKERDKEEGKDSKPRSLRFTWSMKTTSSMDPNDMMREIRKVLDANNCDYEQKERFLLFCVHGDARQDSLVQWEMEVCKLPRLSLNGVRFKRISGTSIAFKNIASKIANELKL

[11] = target: T12, panel of 370 protein kinases (Homo sapiens, UniProt P29322); experiment: as above; design: % Enzyme Activity (relative to DMSO controls): concentration or dose not given beside the values; conditions: 2 h, kinase EPHA8; read-out: % Enzyme Activity (relative to DMSO controls)
T12 construct: purchased Reaction Biology Corporation (assay service)

[12] = target: T13, panel of 370 protein kinases (Homo sapiens, UniProt Q15139); experiment: as above; design: % Enzyme Activity (relative to DMSO controls): concentration or dose not given beside the values; conditions: 2 h, kinase PKCmu/PRKD1; read-out: % Enzyme Activity (relative to DMSO controls)
T13 construct: purchased Reaction Biology Corporation (assay service)

[13] = system: panel of 370 protein kinases; experiment: as above; design: % Enzyme Activity (relative to DMSO controls): concentration or dose not given beside the values
[14] = target: T14, panel of 370 protein kinases (Homo sapiens, UniProt O95819); experiment: as above; design: % Enzyme Activity (relative to DMSO controls): concentration or dose not given beside the values; conditions: 2 h, kinase HGK/MAP4K4; read-out: % Enzyme Activity (relative to DMSO controls)
T14 construct: purchased Reaction Biology Corporation (assay service)

[15] = target: T15, panel of 370 protein kinases (Homo sapiens, UniProt Q9H2G2); experiment: as above; design: % Enzyme Activity (relative to DMSO controls): concentration or dose not given beside the values; conditions: 2 h, kinase SLK/STK2; read-out: % Enzyme Activity (relative to DMSO controls)
T15 construct: purchased Reaction Biology Corporation (assay service)

CCN1CCN(C(=O)c2ccc(Nc3ncc(F)c(-c4ccc5nc(N(C)C)sc5c4)n3)nc2)CC1 [YK-2-69]
IC50 (DYRK3): > 1 µM | % Inhibition DYRK3 (DYRK3; 0.000762079 µM, duplicates): -8.00% and -1.03% | % Inhibition DYRK3 (DYRK3; 0.00228624 µM, duplicates): -10.03% and -2.95% | % Inhibition DYRK3 (DYRK3; 0.00685871 µM, duplicates): -8.21% and -7.66% | % Inhibition DYRK3 (DYRK3; 0.0205761 µM, duplicates): -2.65% and -5.02% | % Inhibition DYRK3 (DYRK3; 0.0617284 µM, duplicates): 11.61% | inhibition at 0.0617284 µM (DYRK3; 0.0617284 µM, duplicates): 6.58% | % Inhibition DYRK3 (DYRK3; 0.185185 µM, duplicates): 29.90% | inhibition at 0.185185 µM (DYRK3; 0.185185 µM, duplicates): 28.2% | % Inhibition DYRK3 (DYRK3; 0.555556 µM, duplicates): 51.81% | inhibition at 0.555556 µM (DYRK3; 0.555556 µM, duplicates): 49.4% | % Inhibition DYRK3 (DYRK3; 1.66667 µM, duplicates): 53.48% | % Inhibition DYRK3 (DYRK3; 5 µM, duplicates): 56.27% | inhibition at 5 µM (DYRK3; 5 µM, duplicates): 56.1% | inhibition at 1.66667 µM (DYRK3; read-out: % Inhibition DYRK3, 1.66667 µM, duplicates): 50.8% | selectivity over DYRK3 (DYRK3; vs DYRK2): more than 100 fold | remaining activity at 1 µM [1]: 104% | remaining activity at 1 µM [2]: 111% | remaining activity at 1 µM [3]: 98.9% | remaining activity at 1 µM [4]: 104% | remaining activity at 1 µM [5]: 75.7% | remaining activity at 1 µM [6]: 104% | remaining activity at 1 µM [7]: 105% | remaining activity at 1 µM [8]: 103% | remaining activity at 1 µM [9]: 87.6% | remaining activity at 1 µM [10]: 88% | remaining activity at 1 µM [11]: 102% | remaining activity at 1 µM [12]: 89.6% | kinase selectivity against 370 kinases ([13]; 1 µM): selectivity over 360+ kinases | % Enzyme Activity (relative to DMSO controls) ([13]; kinase LYN B): 102.77% and 100.49% | % Enzyme Activity (relative to DMSO controls) ([13]; kinase PKCb2): 92.22% and 91.87% | % Enzyme Activity (relative to DMSO controls) ([13]; kinase PKG1b): 114.44% and 107.54% | remaining activity at 1 µM [14]: 86.8% | remaining activity at 1 µM [15]: 94.5%
